Data as given in patent US4680285A, “Treatment of malignant tumors with 2-(β-D-ribofuranosylthiazole-4-carboxamide related compounds” (priority 1985, dated 1987).
“Also recorded” adds a separate entry of the source.

How the values were obtained:
[1] = test system: malignant tumors; test: antitumor activity in vivo (general statements); conditions: summary statements
[2] = test system: Lewis lung carcinoma; test: Lewis lung carcinoma (IV inoculated) in vivo, median survival, 60-day test (Example 10); design: species or system B6 D2 F1 male mice; conditions: for Treated Group Survival Time (median): assigned 60 at end of test, control 18.4; for Percent Treated Animals/Control Animals: based on assigned 60 days
Excerpt: For example 10, B6 D2 F1 male mice were used and challenged with Lewis lung carcinoma.
In Example 10, forty control animals were used and ten test animals each at dose levels indicated below in Table 6. For both the control group and the drug treated group, tumors were induced by IV injection on day zero followed by initiating of drug treatment on day one. For example 10 water was used as the drug vehicle.
In both the control group and the drug treated group in Example 10, the animals were inoculated on day zero with a homogenate of 10^6 seed cells of Lewis lung carcinoma. For Example 10, drug treatment was started on day one and compound 1 given once daily for nine days. Day five was utilized as the cut-off date for details attributable to toxicity of the drug. […] Efficacy of treatment was determined by comparing median survival time of drug treated animals with median survival time of the control animals and is expressed as percentage increase of treated animals/control animals (T/C) as per Example 5.
The test period was for sixty days and at the end of the sixty day period all animals surviving in the test groups were evaluated as either cured, no-takes, or tumor survivors as per Example 5 above.
In this example, the drug treated animals were injected IP with the dose level noted in table 6 below. Ten animals were treated at each dose level. No control animals survived beyond day 23 with a median death data of day 18.4. […] Because of this fact, the T/C ratio noted in table 6 below is a constant figure based on assigning survival day rate of sixty to the treated animals and a median death date of 18.4 days to the control animals.

[3] = test system: type 1 herpes simplex virus; conditions: cited from earlier work
[4] = test system: type 3 parainfluenza virus; conditions: cited from earlier work
[5] = toxicity in tumor bearing animals; type: in vivo; conditions: dosages up to 2000 mg/Kg, toxicity day
Excerpt: In a host which has been diagnosed as being terminally ill with a malignant tumor excessive amounts beyond any toxicity range might be indicated if there is any probability of cure of the terminally ill host as is commonly practiced in current cancer chemotherapy.

[6] = blood brain barrier crossing after IP injection (Example 12); type: in vivo, AKD2 F1 mice; conditions: inferred from activity on intracranial tumor after IP injection
Excerpt: For Example 12, compound 1 was given IP to a group of AKD2 F1 mice which were inflicted by intercranial inoculation with Lewis lung seed cells to establish brain tumors.
For this test, 32 control animals were used and no control animals survived beyond day eleven with a mean death data of day 9.6 for the controls. Water was used as the drug vehicle. For both the control group and the test group, tumors were induced on day zero with initiation of drug treatment on day one where compound 1 was given once daily for nine days. Test results are expressed as T/C as per example 5.

[7] = test system: L-1210 lymphoid leukemia; test: L-1210 lymphoid leukemia in vivo screen, median survival (Example 5); design: species or system CD2 F1 male mice; conditions: for Percent Treated Animals/Control Animals: >125% positive; for Treated Group Survival Time (median): control 8.5
Excerpt: As an indicator of reproducible activity, compound 1 of the invention was screened against L-1210 lymphoid leukemia in vivo using CD2 F1 male mice as the testing species. The parameter of efficacy chosen was based upon the median survival time of animals treated with the drug vs. appropriate control group animals. Both drug treated animals and control group animals were inoculated IP with 10^5 seed cells of L-1210 lymphoid leukemia in Ascitic fluid.
One day after tumor inoculation, the drug group of animals was placed on a regimen of treatment of compound 1 at the dose levels as noted below, table 1. The drug treated group of animals was inoculated once daily for five days at the doses noted by IP injection of the test compound appropriately diluted with water.
Day six was chosen as an indication of drug toxicity. […] Death of drug treated animals after day six was, therefore, attributed to tumor deaths and not drug toxicity.
The median death day of the control group was day 8.5. […] A percent of drug treated animals/control animals greater than 125% is taken as positive drug activity.

[8] = 100 mg/Kg, ten animals, sixty days

For NC(=O)c1csc([C@@H]2O[C@H](CO)[C@@H](O)[C@H]2O)n1 [Compound 1, 2-β-D-Ribofuranosylthiazole-4-Carboxamide], the antitumor activity [1] was “effective in vivo antitumor agents”, the antitumor activity ([1]; listed as 2-β-D-ribofuranosylthiazole-4-carboxamide) was “positive antitumor activity; also recorded: significant antitumor activity in vivo” and the “animals surviving the sixty day test period” value ([2]; 25 mg/Kg) was “all test animals survived”. The “Treated Group Survival Time (median)” value ([2]; 25 mg/Kg IP once daily x9) was 60 days, the “Percent Treated Animals/Control Animals” value ([2]; 25 mg/Kg IP once daily x9) was 326% and the “Treated Group Survival Time (median)” value ([2]; 50 mg/Kg IP once daily x9) was 60 days. For the same compound, the “Percent Treated Animals/Control Animals” value ([2]; 50 mg/Kg IP once daily x9) was 326%, the “day of the one death” value ([2]; 50 mg/Kg, ten animals) was 47 days and the “animals judged as cured” value ([2]; 50 mg/Kg, ten animals, sixty days) was “nine cures”. The “Treated Group Survival Time (median)” value ([2]; 100 mg/Kg IP once daily x9) was 60 days, the “Percent Treated Animals/Control Animals” value ([2]; 100 mg/Kg IP once daily x9) was 326% and the “day of the one death” value ([2]; 100 mg/Kg, ten animals) was 46 days. The “animals judged as cured” value [2, 8] was “eight cures”, the tumor survivors [2, 8] was “one tumor survivor” and the “animals surviving the sixty day test period” value ([2]; 200 mg/Kg) was “all test animals survived”. For the same compound, the “Treated Group Survival Time (median)” value ([2]; 200 mg/Kg IP once daily x9) was 60 days, the “Percent Treated Animals/Control Animals” value ([2]; 200 mg/Kg IP once daily x9) was 326% and the “animals judged as cured” value ([2]; 200 mg/Kg, ten animals, sixty days) was “all ten”. For the same compound, the “animals surviving the sixty day test period” value ([2]; 400 mg/Kg) was “all test animals survived”, the “Treated Group Survival Time (median)” value ([2]; 400 mg/Kg IP once daily x9) was 60 days and the “Percent Treated Animals/Control Animals” value ([2]; 400 mg/Kg IP once daily x9) was 326%. For the same compound, the “animals judged as cured” value ([2]; 400 mg/Kg, ten animals, sixty days) was “all ten”, the “mortality attributable to drug toxicity” value ([2]; 25-400 mg/Kg, day five cut-off) was “no mortality attributable to drug toxicity” and the “activity against Lewis lung carcinoma” value ([2]; Example 10) was “effective antitumor agent; also recorded: active antitumor agent; also recorded: outstanding activity”. For the same compound, the “median survival time vs control” value ([2]; Example 10) was “dramatically extended”, the “DN 2 criteria of the National Cancer Institute” value ([2]; Lewis lung carcinoma) was “successfully passed” and the “cures at cessation of the test period” value ([2]; all but one dose level) was “at least 80%”. For the same compound, the “cures at cessation of the test period” value ([2]; at two dose levels (200 and 400 mg/Kg)) was 100%, the “in vitro antiviral activity” value [3] was “only moderate” and the “in vitro antiviral activity” value [4] was “only moderate”. The “deaths attributed to toxicity” value [5] was “no deaths of the animals were attributed to the toxicity”, the “crossing of the blood brain barrier” value [6] was “successful crossing of the blood brain barrier; also recorded: successfully crosses the blood brain barrier” and the “Percent Treated Animals/Control Animals” value ([7]; 12.5 mg/Kg IP once daily x5) was 111%. For the same compound, the “Treated Group Survival Time (median)” value ([7]; 12.5 mg/Kg IP once daily x5) was 9.5 days, the “Percent Treated Animals/Control Animals” value ([7]; 25 mg/Kg IP once daily x5) was 120% and the “Treated Group Survival Time (median)” value ([7]; 25 mg/Kg IP once daily x5) was 10.2 days. The “Percent Treated Animals/Control Animals” value ([7]; 50 mg/Kg IP once daily x5) was 129%, the “Treated Group Survival Time (median)” value ([7]; 50 mg/Kg IP once daily x5) was 11.0 days and the “Percent Treated Animals/Control Animals” value ([7]; 100 mg/Kg IP once daily x5) was 149%. The “Treated Group Survival Time (median)” value ([7]; 100 mg/Kg IP once daily x5) was 12.7 days, the “Percent Treated Animals/Control Animals” value ([7]; 200 mg/Kg IP once daily x5) was 168% and the “Treated Group Survival Time (median)” value ([7]; 200 mg/Kg IP once daily x5) was 14.3 days. For the same compound, the “survival through day six (drug toxicity)” value ([7]; 12.5-200 mg/Kg IP once daily x5) was “all drug treated animals survived through day six”, the “activity in multiple dose assay” value ([7]; T/C >125% taken as positive) was “positive activity” and the “median death day vs control” value ([7]; all levels of drug tested) was “longer at all levels of drug tested”. The “median death day vs control” value ([7]; greater than 50 mg/Kg) was “significantly longer”.
